In paper PMC5437225, “Picomolar, selective, and subtype-specific small-molecule inhibition of TRPC1/4/5 channels” (The Journal of Biological Chemistry, 2017):

Tests used:
TRPC5 = target: T1, TRPC5 (Homo sapiens, UniProt Q9UL62); test: fura-2 Ca2+ entry, FlexStation 96-well; assay type: cell-based; settings: activated by 10 nM (-)-englerin A; pH 7.4; room temperature; 30 min preincubation; read-out: C31 IC50
T1 construct: homomer
T1 sequence (Q9UL62 1-973): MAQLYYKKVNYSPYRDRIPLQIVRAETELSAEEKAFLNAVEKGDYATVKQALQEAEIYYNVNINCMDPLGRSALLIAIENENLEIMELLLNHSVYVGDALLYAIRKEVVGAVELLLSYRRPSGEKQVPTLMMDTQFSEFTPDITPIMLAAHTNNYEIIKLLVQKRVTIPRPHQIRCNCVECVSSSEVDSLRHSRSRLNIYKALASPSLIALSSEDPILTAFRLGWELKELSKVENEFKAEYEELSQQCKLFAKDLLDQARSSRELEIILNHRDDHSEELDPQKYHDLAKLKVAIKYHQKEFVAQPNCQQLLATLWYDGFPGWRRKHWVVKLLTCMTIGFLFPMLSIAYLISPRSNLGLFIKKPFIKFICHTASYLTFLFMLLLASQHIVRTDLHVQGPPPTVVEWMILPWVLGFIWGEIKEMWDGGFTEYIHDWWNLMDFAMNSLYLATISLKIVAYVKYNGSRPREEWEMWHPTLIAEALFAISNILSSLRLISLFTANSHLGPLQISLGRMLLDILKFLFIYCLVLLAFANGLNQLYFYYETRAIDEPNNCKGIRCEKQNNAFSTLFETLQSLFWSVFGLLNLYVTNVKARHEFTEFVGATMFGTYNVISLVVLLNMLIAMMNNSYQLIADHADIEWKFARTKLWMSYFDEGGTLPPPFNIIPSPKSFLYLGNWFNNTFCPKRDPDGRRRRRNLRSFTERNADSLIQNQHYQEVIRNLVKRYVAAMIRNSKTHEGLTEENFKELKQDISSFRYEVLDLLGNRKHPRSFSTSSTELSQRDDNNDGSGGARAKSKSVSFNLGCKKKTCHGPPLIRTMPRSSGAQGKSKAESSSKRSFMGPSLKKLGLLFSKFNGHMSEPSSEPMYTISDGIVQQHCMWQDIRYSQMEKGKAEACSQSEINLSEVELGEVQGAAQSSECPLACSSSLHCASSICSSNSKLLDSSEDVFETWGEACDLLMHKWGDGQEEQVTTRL
Source text: fura-2 Ca2+ entry, FlexStation 96-well on TRPC5

TRPC5-TRPC1 concatemer = target: T2, TRPC5-TRPC1 concatemer (Homo sapiens, UniProt P48995+Q9UL62); test: fura-2 Ca2+ entry, FlexStation 96-well; assay type: cell-based; settings: read-out: C31 IC50
T2 construct: concatemer of TRPC5 with TRPC1
T2 sequence (P48995 whole entry, one chain of several): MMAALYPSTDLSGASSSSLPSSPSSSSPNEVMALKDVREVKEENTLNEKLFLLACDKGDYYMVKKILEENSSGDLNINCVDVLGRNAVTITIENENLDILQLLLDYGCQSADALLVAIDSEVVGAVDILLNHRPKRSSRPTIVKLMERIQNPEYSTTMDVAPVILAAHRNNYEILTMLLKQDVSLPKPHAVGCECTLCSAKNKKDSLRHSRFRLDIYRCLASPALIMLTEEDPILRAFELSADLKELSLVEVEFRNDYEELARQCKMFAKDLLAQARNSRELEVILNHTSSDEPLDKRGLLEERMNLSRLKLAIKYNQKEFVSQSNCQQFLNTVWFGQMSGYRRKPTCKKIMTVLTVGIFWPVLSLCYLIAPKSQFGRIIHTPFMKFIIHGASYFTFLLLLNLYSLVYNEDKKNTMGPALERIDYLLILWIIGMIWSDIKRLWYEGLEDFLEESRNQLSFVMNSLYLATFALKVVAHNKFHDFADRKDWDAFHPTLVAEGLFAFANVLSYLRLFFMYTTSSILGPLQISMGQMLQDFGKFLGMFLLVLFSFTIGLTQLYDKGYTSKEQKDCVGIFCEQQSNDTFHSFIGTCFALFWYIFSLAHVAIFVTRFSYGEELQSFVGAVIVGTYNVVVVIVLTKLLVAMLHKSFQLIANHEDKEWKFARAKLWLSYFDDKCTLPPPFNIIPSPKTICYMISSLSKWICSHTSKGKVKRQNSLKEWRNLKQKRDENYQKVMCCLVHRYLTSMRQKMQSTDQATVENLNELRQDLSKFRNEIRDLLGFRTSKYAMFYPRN
Source text: fura-2 Ca2+ entry, FlexStation 96-well on TRPC5-TRPC1 concatemer

An IC50 (TRPC5) of 1300 pM and an IC50 (TRPC5-TRPC1 concatemer) of 199 pM were found for `Cn1c(=O)n(CCCO)c(=O)c2c1nc(Oc1cccc(OC(F)(F)F)c1)n2Cc1ccc(Cl)cc1` [compound 31, C31] in this work.
